# Experimental data published in patent publication US20240065271A1, “MIXTURES AND COMPOSITIONS COMPRISING FUSARICIDIN A, FUSARICIDIN B AND FUNGICIDES” (BASF SE, priority 2020, published 2024).
# How the values were obtained:
# [1] = system: Pyricularia oryzae; experiment: microbe, parasite or virus in culture; format: cell-based; settings: for Observed efficacy: single active
# [2] = system: Botrytis cinerea; experiment: Activity against grey mold Botrytis cinerea in the microtiterplate test (BOTRCI); format: cell-based; settings: single active
# [3] = system: Colletotrichum orbiculare; experiment: Activity against Colletotrichum orbiculare in the microtiterplate test (COLLLA); format: cell-based; settings: single active
# [4] = system: Sclerotinia sclerotiorum; experiment: Activity against Sclerotinia sclerotiorum in the microtiterplate test (SCLESC); format: cell-based; settings: single active
# [5] = system: Staphylococcus aureus; settings: clinically relevant fungi and gram-positive bacteria such a Staphylococcus aureus; cited from earlier work
# [6] = Pyricularia oryzae, 168 h, read-out: Observed efficacy
molecule,measurement,setting,value
"O=C(Nc1ccccc1-c1ccc(Cl)cc1)c1cccnc1Cl [Boscalid, boscalid]",inhibition of growth at 1 ppm,[1]; [6],5%
"COc1cc(C)c(C(=O)c2c(OC)ncc(Cl)c2C)c(OC)c1OC [Pyriofenon, pyriofenone]",Observed efficacy,[2]; 16 ppm,12
same,Observed efficacy,[3]; 16 ppm,20
same,Observed efficacy,[1]; 4 ppm,6
same,Observed efficacy,[1]; 16 ppm,18
"O=C(NCc1ncc(C(F)(F)F)cc1Cl)c1c(Cl)cccc1Cl [Fluopicolid, fluopicolide]",Observed efficacy,[1]; 1 ppm,2
"Cc1ccc(-c2c(Cl)nc(C#N)n2S(=O)(=O)N(C)C)cc1 [Cyazofamid, cyazofamid]",inhibition of growth at 0.25 ppm,[1]; [6],6%
same,inhibition of growth at 1 ppm,[1]; [6],16%
"Cn1cc(C(=O)Nc2ccccc2-c2cc(F)c(F)c(F)c2)c(C(F)F)n1 [Fluxapyroxad, fluxapyroxad]",Observed efficacy,[1]; 0.016 ppm,3
"CO/N=C(/C1=NOCCO1)c1ccccc1Oc1ncnc(Oc2ccccc2Cl)c1F [Fluoxastrobin, fluoxastrobin]",inhibition of growth at 0.016 ppm,[1]; [6],8%
"CCCCCCCCc1c(CC)nc2ncnn2c1N [Ametoctradin, ametoctradin]",Observed efficacy,[1]; 4 ppm,12
"COC(=O)CC(NC(=O)[C@@H](NC(=O)OC(C)C)C(C)C)c1ccc(Cl)cc1 (stereo partly shown) [Valifenalat, valifenalate]",Observed efficacy,[1]; 4 ppm,1
"CCC(C)(NC(=O)c1cc(Cl)c(C)c(Cl)c1)C(=O)CCl (stereo not shown) [Zoxamid, zoxamide]",Observed efficacy,[2]; 1 ppm,11
same,Observed efficacy,[3]; 1 ppm,0
same,Observed efficacy,[4]; 1 ppm,0
same,inhibition of growth at 4 ppm,[1]; [6],39%
"Cc1ccc(C(C)NC(=O)[C@@H](NC(=O)OC(C)C)C(C)C)cc1 (stereo partly shown) [Iprovalicarb, iprovalicarb]",Observed efficacy,[1]; 1 ppm,8
same,Observed efficacy,[1]; 4 ppm,17
"C#CCOc1ccc(CCNC(=O)C(OCC#C)c2ccc(Cl)cc2)cc1OC (stereo not shown) [Mandipropamid, mandipropamid]",Observed efficacy,[2]; 63 ppm,16
same,Observed efficacy,[4]; 63 ppm,29
same,Observed efficacy,[1]; 16 ppm,7
"N#Cc1sc2c(=O)c3ccccc3c(=O)c=2sc1C#N [Dithianon, dithianon]",Observed efficacy,[3]; 0.063 ppm,0
same,Observed efficacy,[4]; 1 ppm,57
"Cc1cccc(-n2nnn(C)c2=O)c1COc1ccn(-c2ccc(Cl)cc2)n1 [Methyltetraprol, metyltetraprole]",Observed efficacy,[3]; 0.063 ppm,19
same,Observed efficacy,[1]; 0.016 ppm,16
"CC(C)[C@H](NC(=O)O)C(=O)N[C@H](C)c1nc2ccc(F)cc2s1 [Benthiavalicarb, benthiavalicarb]",Observed efficacy,[1]; 4 ppm,0
same,Observed efficacy,[1]; 16 ppm,8
fosetyl-aluminium,Observed efficacy,[1]; 4 ppm,4
"O=[N+]([O-])c1cc(C(F)(F)F)c(Cl)c([N+](=O)[O-])c1Nc1ncc(C(F)(F)F)cc1Cl [Fluazinam, fluazinam]",inhibition of growth at 0.063 ppm,[1]; [6],8%
"Cc1c(Br)c2ccc(F)cc2n1S(=O)(=O)c1ncn(S(=O)(=O)N(C)C)n1 [Amisulbrom, amisulbrom]",Observed efficacy,[1]; 1 ppm,3
same,Observed efficacy,[1]; 4 ppm,11
fusaricidin A,MIC value range,[5],0.78 to 3.12 µg/mL
"CCCN(CC)CC1COC2(CCC(C(C)(C)C)CC2)O1 (stereo not shown) [Spiroxamin, spiroxamine]",Observed efficacy,[3]; 16 ppm,8
same,inhibition of growth at 4 ppm,[1]; [6],3%
same,inhibition of growth at 16 ppm,[1]; [6],17%
"Cc1cc(C(F)(F)F)nn1CC(=O)N1CCC(c2nc(C3=NOC(c4c(F)cccc4F)C3)cs2)CC1 (stereo not shown) [Oxathiapiprolin, oxathiapiprolin]",Observed efficacy,[2]; 16 ppm,11
"CON=C(C(=O)OC)c1ccccc1CON=C(C)c1cccc(C(F)(F)F)c1 [Trifloxystrobin, trifloxystrobin]",Observed efficacy,[2]; 0.063 ppm,0
same,Observed efficacy,[4]; 0.063 ppm,41
"COc1cc(C)c(C(=O)c2c(OC)ccc(Br)c2C)c(OC)c1OC [Metrafenon, metrafenone]",inhibition of growth at 0.25 ppm,[1]; [6],3%
metiram,Observed efficacy,[1]; 16 ppm,17
mancozeb,Observed efficacy,[1]; 0.25 ppm,5
"CCNC(=O)NC(=O)/C(C#N)=N/OC [Cymoxanil, cymoxanil]",inhibition of growth at 16 ppm,[1]; [6],3%
same,inhibition of growth at 63 ppm,[1]; [6],11%
